{"source": "patent US20040116523A1", "about": "“Use of c4-c10 acids for preventing gram-negative bacterial infections” (priority 2000, published 2004)", "key": {"[1]": {"test_system": "iagA′-lacZcat fusion in S. typhi strain Ty267", "test": "\"Biotype 100\" plate screen for carbon-based substrates that repress the iagA′-lacZcat fusion (β-galactosidase activity)", "assay_type": "cell-based", "conditions": "\"Biotype 100\" cupule, amount of substrate not known; favourable LB medium; 36 hours at 37° C.; control cupule without substrate 11 250", "experimental": "(§1) Each of the strains described above was cultured at 37° C. on agar or in TCS broth. The P-galactosidase activity was determined using 4-methyl-umbelliferyl-p-D-galactopyranoside sold by the company Sigma, according to the technique of Klarsfeld et al. (Mol. Mibrobiol., 1994, 13, 585-597). The results, expressed in P-galactosidase units (fluorescence per hour and per OD600), represent the mean of the values obtained in at least three independent experiments. The standard deviations were less than 10% of the values presented.\nA “Biotype 100”® plate sold by the company BioMerieux is composed of 100 microcupules. Each micro-cupule contains a dehydrated carbon-based substrate, with the exception of the first cupule, which is a control without substrate (the amount of dehydrated substrate per cupule is not given by the manufacturer).\nIn the context of the present example, these plates were used to search for carbon-based compounds which would block the expression of the invasion genes in Salmonella.\nFor this, the S. typhi strain Ty267, which is a derivative of the parental strain Ty2 carrying the iagA′-lacZcat transcriptional fusion (Table I), was cultured in TCS broth for 18 hours at 37° C. with shaking (200 rpm).\nThis culture was then diluted 100-fold in favourable LB medium (0.6 ml of culture for 60 ml of favourable LB), and then this suspension was used immediately to seed the 100 cupules of a “Biotype 100”® plate, in a proportion of 450 μl of suspension per cupule.\nAfter incubation for 36 hours in an incubator at 37° C., the activity of the iagA′-lacZcat fusion in the Ty267 strain was determined for the culture of each cupule.\nBy comparing the value of the P-galactosidase activity measured in a cupule containing a carbon-based substrate with that of the control cupule without substrate, it was possible to investigate whether a substrate had no effect on, activated or repressed the expression of the iagA′-lacZcat fusion.\nThe S. typhi strain Ty267 (iagA′-lacZ fusion), suspended in the favourable LB medium, was used to seed the “Biotype 100”® plates.\nThe β-galactosidase activity expressed by the iagA′-lacZ fusion was determined for the culture in each cupule. With respect to the β-galactosidase activity measured in the control cupule without substrate (11 250 β-galactosidase units), no substrate caused an increase in the expression of the iagA′-lacZ fusion."}, "[2]": {"test_system": "tviB′-lacZ fusion (S. typhi strain Ty266)", "test": "β-galactosidase activity of the tviB′-lacZ fusion (specificity control)", "assay_type": "cell-based", "conditions": "5 mM in favourable LB medium", "experimental": "as §1\nThe tviB gene has been characterized in S. typhi, and it encodes a GDP-dehydrogenase involved in the biosynthesis of the Vi antigen, which is the capsular polysaccharide of the typhus bacillus (Waxin et al., Res. Microbiol., 1993, 144, 363-371).\nThe results are reported on FIG. 4, in which it is seen that samples were taken every two hours in order to measure the OD600 (corresponding to the open symbols) and in order to determine the β-galactosidase activity (corresponding to the solid symbols)."}, "[3]": {"test_system": "S. dublin 5917", "test": "Splenic colonization of C57Bl/6 mice infected orally with S. dublin 5917", "assay_type": "in vivo", "conditions": "50 mM in drinking water pH 7.2-7.3; 10^7 bacteria per animal orally; distilled water 7.7 ± 0.4", "experimental": "They were infected orally in the following way. The Salmonella strains were cultured in TCS broth for 18 hours at 37° C. with shaking (200 rpm). This culture was then adjusted to […] (in the stationary growth phase, 1 OD600 =1.5 ×10^9 bacteria/ml), and then the number of viable bacteria was controlled by counting on TCS agar.\nOn the day of infection (DO), the drinking-water bottles of the mice were replaced with bottles containing 100 ml of drinking water to which the required number of bacteria had been added.\nAfter infection for 24 hours ([…]), the bottles containing the contaminated drinking water were replaced with bottles containing uncontaminated drinking water.\nSeven days after infection (D+7), the spleens of the mice infected in this way were removed and homogenized separately in 1 ml of physiological saline containing 0.7% of NaCl.\nThe number of viable bacteria per spleen was determined by plating out dilutions of the homogenate, onto TCS agar.\nThe S. dublin strain 5917 (Coynault & Norel, Microb. Pathog., 1999, 26, 299-305) and S. enteritidis strain LAS (Thorns et al., Microb. Pathog., 1996, 20, 235-246) were used to infect C57B1/6 mice orally at the dose of 10^7 bacteria per animal."}, "[4]": {"test_system": "enteropathogenic and enterotoxigenic E. coli", "conditions": "1.25 g/l; cited from earlier work"}, "[5]": {"test_system": "Gram-positive or Gram-negative bacteria", "conditions": "7.8 mM, in vitro; cited from earlier work"}}, "data": [{"compound": "CCCCCCCC(=O)[O-].[Na+]", "note": "[sodium caprylate]", "values": [{"measurement": "β-galactosidase activity expressed by the iagA′-lacZ fusion in the cupule", "setting": "[1]", "result": "47 β-galactosidase units"}, {"measurement": "effect on the expression of the tviB′-lacZ fusion", "setting": "[2]", "result": "no significant effect"}, {"measurement": "Number of viable bacteria in the spleen (mean in log10)", "setting": "[3]", "result": "2.1 ± 0.2", "unit": "log10"}, {"measurement": "bactericidal activity in vitro on enteropathogenic and enterotoxigenic E. coli", "setting": "[4]", "result": "no bactericidal activity"}, {"measurement": "bacteriostatic or bactericidal effect on Gram-positive or Gram-negative bacteria", "setting": "[5]", "result": "no bacteriostatic or bactericidal effect"}]}]}
